Laboratory results taken from publication PMC5584945, “Evaluation of robenidine analog NCL195 as a novel broad-spectrum antibacterial agent” (PLoS ONE, 2017).
Values after ≈ are worked out from the molar mass of the structure shown. Where two headings read alike, the source gives them in different places.

Key:
[1] = tested on: S. aureus; assay: MIC, broth micro-dilution (CLSI); format: cell-based, Staphylococcus aureus; conditions: for MIC / MIC50 / MIC90: Staphylococcus aureus
[2] = tested on: vancomycin-resistant enterococci (VRE); assay: MIC, broth micro-dilution (CLSI); format: cell-based, enterococci (porcine isolates)
[3] = S2 Table isolates, absence of FBS
[4] = Enterococcus, VRE, S3 Table isolates, 10% FBS

Cc1ccc(/C=N/Nc2cc(N/N=C/c3ccc(C)cc3)nc(N)n2)cc1 [NCL195, 4,6-bis(2-((E)-4-methylbenzylidene)hydrazinyl)pyrimidin-2-amine]
Fold increase of MIC range in the presence of 10% FBS ([1]; 10% FBS versus no FBS): 4 fold
MIC range ([1]; 23 isolates): 1 to 2 µg/mL
MIC range ([1]; S2 Table isolates, 10% FBS): 4 to 8 µg/mL
MIC range [1, 3]: 1 to 2 µg/mL
Fold increase in MIC in the presence of serum ([1]; S. aureus 49775, human, horse or mouse serum): 4 fold
MIC ([1]; ATCC 12600 / MSSA, ATCC12600 [Xen29] (MSSA), 10% FBS): 4 µg/mL (≈ 11.1 µM)
MIC ([1]; ATCC 12600 / MSSA, ATCC12600 [Xen29] (MSSA), absence of FBS): 1 µg/mL (≈ 2.78 µM)
MIC ([1]; ATCC 29213 / MSSA, ATCC29213 MSSA (ST5), 10% FBS, read-out: MIC): 8 µg/mL (≈ 22.3 µM)
MIC ([1]; ATCC 29213 / MSSA, ATCC29213 MSSA (ST5), absence of FBS, read-out: MIC): 2 µg/mL (≈ 5.56 µM)
MIC ([1]; ATCC 49775 / MSSA, ATCC 49775 (MSSA), 10% FBS, read-out: MIC): 8 µg/mL (≈ 22.3 µM)
MIC ([1]; ATCC 49775 / MSSA, ATCC 49775 (MSSA), absence of FBS, read-out: MIC): 2 µg/mL (≈ 5.56 µM)
MIC ([1]; IRISH 1 – HA-EMRSA (ST8), 10% FBS, read-out: MIC): 8 µg/mL (≈ 22.3 µM)
MIC ([1]; IRISH 1 – HA-EMRSA (ST8), absence of FBS, read-out: MIC): 2 µg/mL (≈ 5.56 µM)
MIC ([1]; IRISH 2 – HA-EMRSA (ST8), 10% FBS, read-out: MIC): 4 µg/mL (≈ 11.1 µM)
MIC ([1]; IRISH 2 – HA-EMRSA (ST8), absence of FBS, read-out: MIC): 1 µg/mL (≈ 2.78 µM)
MIC ([1]; MRSA / USA300, USA 300 - MRSA (ST8), 10% FBS, read-out: MIC): 8 µg/mL (≈ 22.3 µM)
MIC ([1]; MRSA / USA300, USA 300 - MRSA (ST8), absence of FBS, read-out: MIC): 2 µg/mL (≈ 5.56 µM)
MIC ([1]; MRSA, AUS2-MRSA (ST239), 10% FBS, read-out: MIC): 8 µg/mL (≈ 22.3 µM)
MIC ([1]; MRSA, AUS2-MRSA (ST239), absence of FBS, read-out: MIC): 2 µg/mL (≈ 5.56 µM)
MIC ([1]; MRSA, AUS3-MRSA (ST239), 10% FBS, read-out: MIC): 4 µg/mL (≈ 11.1 µM)
MIC ([1]; MRSA, AUS3-MRSA (ST239), absence of FBS, read-out: MIC): 1 µg/mL (≈ 2.78 µM)
MIC ([1]; MRSA, Classic–HA-MRSA (ST250), 10% FBS, read-out: MIC): 8 µg/mL (≈ 22.3 µM)
MIC ([1]; MRSA, Classic–HA-MRSA (ST250), absence of FBS, read-out: MIC): 2 µg/mL (≈ 5.56 µM)
MIC ([1]; MRSA, NY JAPAN – HA MRSA (ST5), 10% FBS, read-out: MIC): 4 µg/mL (≈ 11.1 µM)
MIC ([1]; MRSA, NY JAPAN – HA MRSA (ST5), absence of FBS, read-out: MIC): 1 µg/mL (≈ 2.78 µM)
MIC ([1]; MRSA, ST398–CA-MRSA-V (ST398), 10% FBS, read-out: MIC): 8 µg/mL (≈ 22.3 µM)
MIC ([1]; MRSA, ST398–CA-MRSA-V (ST398), absence of FBS, read-out: MIC): 2 µg/mL (≈ 5.56 µM)
MIC ([1]; MRSA, WA2–CA-MRSA (ST78), 10% FBS, read-out: MIC): 4 µg/mL (≈ 11.1 µM)
MIC ([1]; MRSA, WA2–CA-MRSA (ST78), absence of FBS, read-out: MIC): 1 µg/mL (≈ 2.78 µM)
MIC ([1]; MRSA, WA3–CA-MRSA (ST5), 10% FBS, read-out: MIC): 4 µg/mL (≈ 11.1 µM)
MIC ([1]; MRSA, WA3–CA-MRSA (ST5), absence of FBS, read-out: MIC): 1 µg/mL (≈ 2.78 µM)
MIC ([1]; MRSA, WA84–CA-MRSA (ST45), 10% FBS, read-out: MIC): 4 µg/mL (≈ 11.1 µM)
MIC ([1]; MRSA, WA84–CA-MRSA (ST45), absence of FBS, read-out: MIC): 1 µg/mL (≈ 2.78 µM)
MIC50 ([1]; S2 Table isolates, 10% FBS): 8 µg/mL (≈ 22.3 µM)
MIC90 ([1]; S2 Table isolates, 10% FBS): 8 µg/mL (≈ 22.3 µM)
MIC50 [1, 3]: 2 µg/mL (≈ 5.56 µM)
MIC90 [1, 3]: 2 µg/mL (≈ 5.56 µM)
MIC ([1]; TAIWAN PVL+ – CA-cMRSA (ST59), 10% FBS, read-out: MIC): 4 µg/mL (≈ 11.1 µM)
MIC ([1]; TAIWAN PVL+ – CA-cMRSA (ST59), absence of FBS, read-out: MIC): 1 µg/mL (≈ 2.78 µM)
MIC ([1]; UK 15 PVL+ – HA-EMRSA (ST22), 10% FBS, read-out: MIC): 8 µg/mL (≈ 22.3 µM)
MIC ([1]; UK 15 PVL+ – HA-EMRSA (ST22), absence of FBS, read-out: MIC): 2 µg/mL (≈ 5.56 µM)
MIC ([1]; UK 15 – HA-EMRSA (ST22), 10% FBS, read-out: MIC): 8 µg/mL (≈ 22.3 µM)
MIC ([1]; UK 15 – HA-EMRSA (ST22), absence of FBS, read-out: MIC): 2 µg/mL (≈ 5.56 µM)
MIC ([1]; UK 16 – HA- EMRSA (ST36), 10% FBS, read-out: MIC): 4 µg/mL (≈ 11.1 µM)
MIC ([1]; UK 16 – HA- EMRSA (ST36), absence of FBS, read-out: MIC): 1 µg/mL (≈ 2.78 µM)
MIC ([1]; UK 17 – HA-EMRSA (ST247), 10% FBS, read-out: MIC): 8 µg/mL (≈ 22.3 µM)
MIC ([1]; UK 17 – HA-EMRSA (ST247), absence of FBS, read-out: MIC): 2 µg/mL (≈ 5.56 µM)
Fold increase of MIC range in the presence of 10% FBS ([2]; 10% FBS versus no FBS): 4 fold
MIC range ([2]; 20 isolates): 2 to 4 µg/mL
MIC50 [2, 4]: 16 µg/mL (≈ 44.5 µM)
MIC90 [2, 4]: 32 µg/mL (≈ 89 µM)
MIC50 ([2]; Enterococcus, VRE, S3 Table isolates, absence of FBS): 2 µg/mL (≈ 5.56 µM)
